Read-outs that look alike come from different tables or passages of the source. One block for each compound: values may come before it.
Experiments:
[1] = target: TBG; set-up: method as in Ren et al. [2016]; conditions: ref Ren et al. [2016], cited from earlier work
[2] = target: T1, thyroxine-binding globulin (TBG) (Homo sapiens, UniProt P05543); test: Competitive TBG-binding assay with FITC-T4 (fluorescence polarization readout); conditions: 37 °C, 15 min, preliminary temperature experiment (N = 2)
T1 construct: purchased Bio-rad Laboratories, Inc. (Veenendaal, The Netherlands)
T1 sequence (P05543 21-415): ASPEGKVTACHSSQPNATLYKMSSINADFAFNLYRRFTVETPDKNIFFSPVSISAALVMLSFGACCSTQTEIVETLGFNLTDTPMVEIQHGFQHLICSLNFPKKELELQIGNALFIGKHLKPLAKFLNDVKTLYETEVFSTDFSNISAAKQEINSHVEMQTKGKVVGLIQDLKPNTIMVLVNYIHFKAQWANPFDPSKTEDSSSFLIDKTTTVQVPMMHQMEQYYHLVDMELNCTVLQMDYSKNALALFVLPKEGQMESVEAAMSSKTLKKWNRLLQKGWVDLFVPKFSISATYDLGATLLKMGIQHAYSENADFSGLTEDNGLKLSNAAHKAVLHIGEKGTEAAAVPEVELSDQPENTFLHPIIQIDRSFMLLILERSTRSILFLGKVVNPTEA

[3] = target: TBG; set-up: method as in Qi et al. [2011]; conditions: ref Qi et al. [2011]; read-out: TBG literature Ki; cited from earlier work
[4] = tested on: TBG; set-up: method as in Marchesini et al. [2008]; conditions: T4-coated chips and TBG; ref Marchesini et al. [2008]; read-out: TBG IC50 (SPR biosensor); cited from earlier work
[5] = target: Recombinant TTR; set-up: method as in Marchesini et al. [2006]; conditions: T4 100 nM, recombinant TTR 18.2 nM, 25 °C, 10 min, ref Marchesini et al. [2006], cited from earlier work
[6] = target: TBG; set-up: method as in Ren and Guo [2012]; conditions: ref Ren and Guo [2012]; read-out: TBG literature Ki; cited from earlier work
[7] = target: T1, thyroxine-binding globulin (TBG); test: Competitive TBG-binding assay with FITC-T4 (fluorescence polarization readout); conditions: for Ki / IC50 / IC20: RT
Procedure: Prepared plates were first shaken for 5 min and then incubated for 15 min at room temperature before being analysed by the microplate reader at FP mode (CLARIOstar Plus, BMG LABTECH).
Accordingly, dilution series of all compounds were prepared in DMSO. First, 24 µL Tris–HCl buffer was pipetted to the wells, followed by 1 µL of the compound stock solution. […] Solvent (DMSO) concentrations in all conditions were 1%. The plates were shaken for 5 min on a plate shaker, followed by an incubation for 15 min at room temperature.
The adjusted polarization was set to a reference value of 35 mP. The adjustment gain values ranged from 1900 to 2200. The plate layout of TBG-binding assay is provided in Supplementary Information file (Section 4).
For the competitive TBG-binding experiments, concentration–response curves were fitted:2 r=rmin+rmax-rmin/1+IC50/X^HillSlope with rmin and rmax being the minimum and maximum anisotropy values, respectively. X is the concentration of added competitor. Equations that were used for the calculation of the ICX and Ki values in the TTR-binding assays (Supplementary Information, Section 3) were also used to determine the ICX and Ki values in TBG-binding assays without any changes, respectively. The single Kd, IC20, IC50 and Ki were determined based on replicates (n) in each experiment, and then the average and confidence intervals were determined based on the Kd, IC20, IC50 and Ki values from sperate experiments (N).
Alternatively, another approach to determine ICX, Kd and Ki values based on a theoretical model of ligand–protein binding biochemistry was taken as described in detail in the Supplementary Information file (Section 5). For this approach, R was used to fit the model to the data. The results obtained from the two approaches were compared in Section 3.4.
S5.2 Ki and IC50 estimation

[8] = target: TBG; set-up: method as in Cao et al. [2010]; conditions: ref Cao et al. [2010]; read-out: TBG literature Ki; cited from earlier work
[9] = target: T2, Human TTR (Homo sapiens, UniProt P02766); test: Optimized competitive TTR-binding assay with FITC-T4 (fluorescence intensity readout); conditions: for IC20: read-out: TTR IC20
T2 construct: Transthyretin (prealbumin, TTR) >95% from human plasma; purchased Sigma Aldrich (Zwijndrecht, The Netherlands); host or cells: human plasma
Procedure: All TTR-binding experiments were performed in black 96-well polystyrene nonbinding plates. Experimental wells and background wells were prepared in triplicate per plate. […] Fluorescence intensity (FI) was measured at λex = 485 ± 20 nm and λem = 528 ± 20 nm (CLARIOstar Plus microplate reader, BMG LABTECH).
To test the effect of the change in temperature and incubation time, a saturation experiment (N = 3, n = 3) was performed in Tris–HCl buffer (0.1 M Tris (Thermo Scientific, Rockford, USA), 0.1 M NaCl (Merck KGaA, Darmstadt, Germany), 1 mM EDTA (VWR International, B.V. Amsterdam, The Netherlands); pH 8.0). […] Two 96-well plates were prepared at the same time. After shaking for 5 min on a plate shaker, one prepared plate was incubated on ice (at 4 °C) and another plate was incubated at room temperature (22 °C). For both plates the fluorescence was measured at different time points: 5 min, 15 min, 60 min and 120 min.
First, 48 µL Tris–HCl buffer (pH 8.0) was pipetted to the wells, followed by 2 µL of the compound (in DMSO). […] Final solvent (DMSO) concentrations in all conditions amounted to 1%. All plates were shaken for 5 min on a plate shaker, followed by an incubation for 15 min at room temperature. The standard operation procedure (SOP) is provided in Supplementary Information file (Section 3).
Calculations of the ICX, Kd and Ki values of TTR-binding assays are described in the Supplementary Information file (Section 3).
3.7.5 The competitive TTR binding screening assay
3.7.8 Processing data to determine IC50 and calculate Ki value

[10] = tested on: TBG; conditions: highest tested concentration 100 µM with 100 nM TBG and 50 nM FITC-T4; ref Ren et al. [2020]; cited from earlier work
[11] = target: T2, Human TTR; conditions: FITC-T4 110 nM, human TTR 30 nM, 4 °C, 2 h; ref Hamers et al. [2020]; read-out: TTR literature Ki; cited from earlier work
[12] = tested on: TTR; conditions: ref Ren et al. [2020]; cited from earlier work
[13] = 5 nM FITC-T4, 10 nM TBG, 15 min, derived from IC20, descriptive model (Graphpad), average [95% CI], read-out: TBG Ki
[14] = 5 nM FITC-T4, 10 nM TBG, 15 min, descriptive model (Graphpad), average [95% CI]
[15] = 5 nM FITC-T4, 10 nM TBG, 15 min, descriptive model (Graphpad), average [95% CI], read-out: TBG IC20
[16] = 5 nM FITC-T4, 10 nM TBG, theoretical model in R, average [95% CI], read-out: TBG IC20, theoretical model
[17] = 5 nM FITC-T4, 10 nM TBG, theoretical model in R, average [95% CI], read-out: TBG Ki values, theoretical model
[18] = 110 nM FITC-T4, 30 nM TTR, RT, 15 min, average [95% CI]
[19] = T4EQi = highest human blood concentration x T4-REPi

SMILES: O=C(O)C(F)(F)C(F)(F)C(F)(F)C(F)(F)C(F)(F)C(F)(F)C(F)(F)C(F)(F)C(F)(F)C(F)(F)C(F)(F)C(F)(F)C(F)(F)F [PFTdA, perfluorotetradecanoic acid]
Ki ([1]; read-out: TBG Ki): 26600 nM

Ki [2]: 2.6 nM
Ki [7, 13]: 2.5 nM
IC50 [7, 14]: 14.9 nM
IC20 [7, 15]: 9.2 nM
IC20 [7, 16]: 5.9 nM
Ki [7, 17]: 0.8 nM
Ki ([7]; 15 min, preliminary temperature experiment (N = 2), read-out: TBG Ki): 2.9 nM
IC20 [9, 18]: 25 nM
SMILES: N[C@@H](Cc1cc(I)c(Oc2cc(I)c(O)c(I)c2)c(I)c1)C(=O)O [T4, 3,3′,5,5′-tetraiodothyronine]
Ki ([1]; N.D means not detected, read-out: TBG literature Ki): 7 nM
Ki [3]: 2.2 nM
IC50 [4]: 17.2 nM
Kd ([5]; read-out: Determined Kd value of ligand with TTR): 9.2 ± 1.2 nM
Ki ([5]; read-out: TTR literature Ki): 13.7 ± 1.3 nM
Ki [6]: 17 nM
Ki [8]: 0.6 nM

Ki [7, 13]: 3760 nM
IC50 [7, 14]: 68100 nM
IC20 [7, 15]: 7300 nM
IC20 [7, 16]: 6420 nM
Ki [7, 17]: 3310 nM
T4EQ concentration (TBG binding) [7, 19]: 2 pM
Contribution to T4EQ concentration (TBG binding) ([7]; mixture of highest human blood concentrations of TBBPA, triclosan and BPA): 0.1%
IC20 [9, 18]: 12 nM
IC50 ([9]; 110 nM FITC-T4, 30 nM TTR, RT, 15 min, average [95% CI], read-out: TTR IC50): 22 nM
Ki ([9]; 110 nM FITC-T4, 30 nM TTR, RT, 15 min, derived from IC20, average [95% CI], read-out: TTR Ki): 12 nM
T4EQ concentration (TTR binding) [9, 19]: 3.73 nM
Contribution to T4EQ concentration (TTR binding) ([9]; mixture of highest human blood concentrations of five model compounds): 19.5%
SMILES: CC(C)(c1cc(Br)c(O)c(Br)c1)c1cc(Br)c(O)c(Br)c1 [TBBPA]
binding to TBG (in words) [10]: not to TBG
Ki [11]: 17 nM
binding to TTR (in words) [12]: binding of TBBPA to TTR

SMILES: Oc1cc(Cl)ccc1Oc1ccc(Cl)cc1Cl [Triclosan, triclosan]
IC20 [7, 15]: 284 nM
IC20 [7, 16]: 293 nM

Reference: paper PMC11489250, “Optimized methods for measuring competitive binding of chemical substances to thyroid hormone distributor proteins transthyretin and thyroxine binding globulin” (Archives of Toxicology, 2024)
